Article PMC4817154 (Scientific Reports, 2016)
Changes are numbered by the printed parent chain. In names and notes the source's numbering stands. Several values for one entry are separate records, joined by “and”; a condition that tells them apart may be missing. Equal entries are not always repeated.

What was measured:
NCCc1c[nH]c2ccc(O)cc12 = test: cells, lysate or membranes; settings: [3H]5-HT transport, T-REx-293 cells, average ± SEM, pH 7.4
dmSERT-M167I [1] = target: T1, dmSERT-M167I (Drosophila melanogaster, UniProt P51905, M167I); test: cell-based
T1 construct: expressed in transfected cells; host or cells: T-REx-293

LeuBAT-Δ13 = LeuBAT-Δ13 construct; cited from earlier work
dmSERT-P488T [2] = target: T2, dmSERT-P488T (Drosophila melanogaster, UniProt P51905, P488T); test: cell-based
T2 construct: expressed in transfected cells; host or cells: T-REx-293

dmSERT-I492V [3] = target: T3, dmSERT-I492V (Drosophila melanogaster, UniProt P51905, I492V); test: cell-based
T3 construct: expressed in transfected cells; host or cells: T-REx-293

dmSERT-WT = target: T4, dmSERT-WT (Drosophila melanogaster, UniProt P51905); test: Paroxetine inhibition of [3H]5-HT transport; type: cell-based
T4 construct: expressed in transfected cells; host or cells: T-REx-293
T4 sequence (P51905 1-622): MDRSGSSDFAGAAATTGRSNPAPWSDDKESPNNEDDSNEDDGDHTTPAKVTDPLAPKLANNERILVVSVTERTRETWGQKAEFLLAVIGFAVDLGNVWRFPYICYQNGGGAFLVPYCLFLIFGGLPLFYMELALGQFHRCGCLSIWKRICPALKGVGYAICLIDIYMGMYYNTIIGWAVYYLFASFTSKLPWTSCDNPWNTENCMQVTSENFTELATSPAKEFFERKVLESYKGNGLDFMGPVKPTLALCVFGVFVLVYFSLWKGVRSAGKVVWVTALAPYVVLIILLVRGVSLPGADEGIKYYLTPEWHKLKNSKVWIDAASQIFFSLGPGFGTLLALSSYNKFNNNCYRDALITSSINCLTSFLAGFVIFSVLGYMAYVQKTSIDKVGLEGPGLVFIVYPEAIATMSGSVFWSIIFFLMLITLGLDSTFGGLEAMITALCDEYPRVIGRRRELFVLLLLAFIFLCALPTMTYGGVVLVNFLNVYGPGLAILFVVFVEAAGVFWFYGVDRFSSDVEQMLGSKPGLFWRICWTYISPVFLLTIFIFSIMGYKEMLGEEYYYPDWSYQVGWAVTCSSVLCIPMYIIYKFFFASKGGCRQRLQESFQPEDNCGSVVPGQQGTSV

dmSERT = target: dmSERT; set-up: method as in PMID 8197200, PMID 9677366; settings: read-out: published paroxetine Ki for inhibition of [3H]5-HT uptake; cited from earlier work
dmSERT-N484E [4] = target: T5, dmSERT-N484E (Drosophila melanogaster, UniProt P51905, N484E); test: cell-based
T5 construct: expressed in transfected cells; host or cells: T-REx-293

dmSERT-G168A [5] = target: T6, dmSERT-G168A (Drosophila melanogaster, UniProt P51905, G168A); test: cell-based
T6 construct: expressed in transfected cells; host or cells: T-REx-293

ggSERT = target: ggSERT; set-up: method as in PMID 15271993; settings: read-out: published paroxetine Ki for inhibition of [3H]5-HT uptake; cited from earlier work
dmSERT-F90Y [6] = target: T7, dmSERT-F90Y (Drosophila melanogaster, UniProt P51905, F90Y); test: cell-based
T7 construct: expressed in transfected cells; host or cells: T-REx-293

dmSERT-D164A [7] = target: T8, dmSERT-D164A (Drosophila melanogaster, UniProt P51905, D164A); test: cell-based
T8 construct: expressed in transfected cells; host or cells: T-REx-293

hsSERT-Y95F = hsSERT-Y95F (Homo sapiens, UniProt P31645, Y95F); settings: cited from earlier work
dmSERT-G168A [8] = target: T6, dmSERT-G168A; type: cell-based
dmSERT-D164A [9] = target: T8, dmSERT-D164A; type: cell-based
ggSERT-WT = ggSERT-WT (Gallus gallus, UniProt Q6PWI2); test: Steady-state kinetics of [3H]5-HT transport; type: cell-based, chicken (Gallus gallus)
From the text: (§1) Control cells were transfected with empty vector.

dmSERT-N484E [10] = target: T5, dmSERT-N484E; type: cell-based
dmSERT-M167I [11] = target: T1, dmSERT-M167I; type: cell-based
dmSERT-I492V [12] = target: T3, dmSERT-I492V; type: cell-based
dmSERT-P488T [13] = target: T2, dmSERT-P488T; type: cell-based
dmSERT-F90Y [14] = target: T7, dmSERT-F90Y; type: cell-based
[15] = substrate: NCCc1c[nH]c2ccc(O)cc12; test: cells, lysate or membranes; type: cell-based, chicken (Gallus gallus); settings: [3H]5-HT transport, T-REx-293 cells, average ± SEM, pH 7.4
From the text: as §1

With “dmSERT-M167I (Drosophila melanogaster; M167I)” the Km (NCCc1c[nH]c2ccc(O)cc12; other: dmSERT-M167I) was 1,487 ± 132 nM and the Vmax (NCCc1c[nH]c2ccc(O)cc12; other: dmSERT-M167I) was 51.6 ± 14.3 pmol/min/mg total cell protein.

In the case of “dmSERT-P488T (Drosophila melanogaster; P488T)”, the Km (NCCc1c[nH]c2ccc(O)cc12; other: dmSERT-P488T) is reported as 2,737 ± 277 nM and the Vmax (NCCc1c[nH]c2ccc(O)cc12; other: dmSERT-P488T) is reported as 9.8 ± 0.2 pmol/min/mg total cell protein.

In the case of `Fc1ccc([C@@H]2CCNC[C@H]2COc2ccc3c(c2)OCO3)cc1` [Paroxetine, (3S,4R)-3-[(2H-1,3-benzodioxol-5-yloxy)methyl]-4-(4-fluorophenyl)piperidine], the IC50 (dmSERT-M167I [1]) is given as 2.71 ± 0.29 nM, the Ki (dmSERT-M167I [1]) is given as 2.68 ± 0.29 nM and the Kd (LeuBAT-Δ13) is given as roughly 430 nM. The IC50 (dmSERT-P488T [2]) was 20.5 ± 1.86 nM, the Ki (dmSERT-P488T [2]) was 20.3 ± 1.85 nM and the IC50 (dmSERT-I492V [3]) was 16.3 ± 1.2 nM. The Ki (dmSERT-I492V [3]) was 16.2 ± 1.2 nM, the IC50 (dmSERT-WT) was 6.1 ± 1.35 nM and the Ki (dmSERT-WT; Ki, dmSERT-WT, from IC50 and Km via Cheng-Prusoff) was 6.04 ± 1.33 nM. The Ki (dmSERT) was 3.4 nM, the IC50 (dmSERT-N484E [4]) was 1.9 ± 0.22 nM and the Ki (dmSERT-N484E [4]) was 1.83 ± 0.21 nM. The IC50 (dmSERT-G168A [5]) was 2.8 ± 0.66 nM, the Ki (dmSERT-G168A [5]) was 2.78 ± 0.66 nM and the Ki (ggSERT) was 397 nM. For the same molecule, the IC50 (dmSERT-F90Y [6]) was 5.31 ± 0.94 nM, the Ki (dmSERT-F90Y [6]) was 5.26 ± 0.93 nM and the IC50 (dmSERT-D164A [7]) was 0.86 ± 0.07 nM. For the same molecule, the Ki (dmSERT-D164A [7]; Ki, dmSERT-D164A, from IC50 and Km via Cheng-Prusoff) was 0.9 nM and 0.86 nM.

For `OC1(c2ccc(Cl)cc2)c2ccccc2C2=NCCN21` (stereo not drawn) [mazindol], the change in potency (hsSERT-Y95F) is given as “increase”.

In the case of “dmSERT-G168A (Drosophila melanogaster; G168A)”, the Km (NCCc1c[nH]c2ccc(O)cc12; other: dmSERT-G168A) is reported as 3,342 ± 272 nM and the Vmax (NCCc1c[nH]c2ccc(O)cc12; other: dmSERT-G168A) is reported as 213.4 ± 39.9 pmol/min/mg total cell protein.

In the case of “dmSERT-I492V (Drosophila melanogaster; I492V)”, the Km (NCCc1c[nH]c2ccc(O)cc12; other: dmSERT-I492V) is reported as 3,281 ± 357 nM and the Vmax (NCCc1c[nH]c2ccc(O)cc12; other: dmSERT-I492V) is reported as 58.0 ± 5.7 pmol/min/mg total cell protein.

For “dmSERT-N484E (Drosophila melanogaster; N484E)”, the Km (NCCc1c[nH]c2ccc(O)cc12; other: dmSERT-N484E) was 522 ± 67 nM and the Vmax (NCCc1c[nH]c2ccc(O)cc12; other: dmSERT-N484E) was 5.2 ± 1.2 pmol/min/mg total cell protein.

For `NCCc1c[nH]c2ccc(O)cc12` [5-HT, 5-hydroxytryptamine], the “% wt Vmax” value (dmSERT-G168A [8]) was 330.3 ± 61.7%, the “% wt Vmax” value (dmSERT-D164A [9]) was 136.0 ± 10.6% and the “% wt Vmax” value (ggSERT-WT) was 100 ± 9.6%. For the same molecule, the “% wt Vmax” value (dmSERT-N484E [10]) was 8.0 ± 1.8%, the “% wt Vmax” value (dmSERT-M167I [11]) was 79.9 ± 22.1% and the “% wt Vmax” value (dmSERT-I492V [12]) was 89.8 ± 8.8%. For the same molecule, the “% wt Vmax” value (dmSERT-P488T [13]) was 15.1 ± 0.3% and the “% wt Vmax” value (dmSERT-F90Y [14]) was 109.7 ± 4.2%.

In the case of “dmSERT-F90Y (Drosophila melanogaster; F90Y)”, the Km (NCCc1c[nH]c2ccc(O)cc12; other: dmSERT-F90Y) is reported as 1,784 ± 121 nM and the Vmax (NCCc1c[nH]c2ccc(O)cc12; other: dmSERT-F90Y) is reported as 70.9 ± 2.7 pmol/min/mg total cell protein.

For “dmSERT-D164A (Drosophila melanogaster; D164A)”, the Km (NCCc1c[nH]c2ccc(O)cc12; other: dmSERT-D164A) was 10,258 ± 756 nM and the Vmax (NCCc1c[nH]c2ccc(O)cc12; other: dmSERT-D164A) was 87.9 ± 6.8 pmol/min/mg total cell protein.

B1: ggSERT-WT (Gallus gallus) (protein)
chain: MENKATSNETQPLTSKKGISDCNEGEDCKENGLLIRNPKSALRLVDDGNKVHPGQGDKEEAAQISNGYSGVQSSGPCSGMGEAEDAQCTAPAATTTTTTTTSTTCGAEGQQQLMELGDRETWSKKIDFLLSVIGYAVDLGNVWRFPYICYQNGGGAFLIPYTIMAIFGGIPLFYMELALGQYHRNGCISIWRKICPIFKGIGFAICIIDLYVASYYNTIMAWVFYYLVSSFTTELPWTSCNNAWNTGNCTTYFSKDNISWALHSISPAEEFYTRQVLQVHRSNGLDDLGGISWQLTLCLLLIFIIVYFSIWKGVKTSGKVVWVTATFPYVILFILLVRGATLPGAWRGVLYYLKPEWQKLLATEVWVDAAAQIFFSLGPGFGVLLAYASYNKFHNNCYQDALVTSTVNCLTSFVSGFVIFTVLGYMAEMRNEDVSEVAKDMGPSLLFITYAEAIANMPASTFFAIIFFLMLLTLGLDSTFAGLEGVITGVLDEFPHVWSKRREFFVLGLIIICFLGSLATLTFGGAYVVKLFEEYATGPAVLTVVFLEAVAVAWFYGITQFCNDVKEMLGFAPGWYWRVCWVAISPIFLLFVTCSFLSNPPELRLFDYNYPYWTTVVGYCIGTSSIICIPIYMAYRLIITPGTLKERILKSITPETATEIPFGDIRMNAV
With B1 the Vmax ([15]; other: ggSERT-WT) was 18.4 ± 1.8 pmol/min/mg total cell protein.

B2: ggSERT-D209A (Gallus gallus; D209A) (protein)
chain: B1 chain with D209A
For B2, the Km ([15]; other: ggSERT-D209A) was 0.971 ± 0.071 µM and the Vmax ([15]; other: ggSERT-D209A) was 73.8 ± 21.5 pmol/min/mg total cell protein.
